According to patent US9447026B2, “Bicyclic analgesic compounds” (KALYRA PHARMACEUTICALS, INC., priority 2013, dated 2016):

Columns and labels:
[1] = test system: pooled human liver microsomes; test: Glutathione Conjugation Assay; format: in vitro ADME; details: 100 μM test compound, 1 mM glutathione, NADPH, 60 mins at 37° C.
Protocol: An incubation mixture consisting of 5 μL of 10 mM test compound in DMSO (5 μL of DMSO for negative control; 5 μL of 10 mM acetaminophen in DMSO for positive control), 5 μL of 0.1 M glutathione 25 mM EDTA in water, 50 μL of 100 mM MgCl2 in water, 50 μL of 20 mg/mL pooled human liver microsomes (P-450 content: ˜0.5 nmol/mg protein), and 340 μL of 100 mM potassium phosphate buffer (pH 7.4) was preincubated at 37° C. for 10 mins. The reaction was initiated by the addition of 50 μL of 100 mM NADPH solution. The final incubation volume was 0.5 mL. The incubation mixture contains 100 μM test compound or acetaminophen (positive control), 1 mM glutathione, and 1 μM P450. After 60 mins incubation at 37° C., 1 mL of chilled acetonitrile was added to stop the reaction. After the addition of acetonitrile, the sample was vortexed and centrifuged. The supernatant was collected, concentrated in TurboVap under N2 (10 psi) at 30° C. for 35 mins, and transferred to a 96-well plate. The plate was capped and centrifuged. The supernatant was injected for LC-MS/MS analysis.
As a result, one skilled in the art would not expect compounds of Formula (I) to form the reactive metabolite NAPQI. A 129 neutral loss scan can be used to search or detect the formation of glutathione conjugates.

male ICR mice = test: Formalin Paw Test; format: in vivo
Protocol: One test compound or the vehicle was administered to each mouse in each test group (8 mice per group). Non-fasted male ICR mice weighing 23±3 g were used. Compounds of Formula (I) were administered at a concentration of 3 mg/kg, 10 mg/kg, 15 mg/kg, 30 mg/kg, 60 mg/kg, 100 mg/kg, 200 mg/kg or 300 mg/kg; morphine was administered at a concentration of 5 mg/kg; and acetaminophen was administered at a concentration of 200 mg/kg. The control group received the vehicle (5% DMSO/40% PEG400/20% HPbCD/Saline). After 30 or 60 minutes, a 2% formalin solution (0.02 mL) was injected into one hind paw (sub-plantar) of each mouse. Responses were measured every 5 minutes after the formalin injection for 35 minutes.

[2] = 200 mg/kg, administered 30 minutes before formalin injection, acetaminophen 200 mg/kg, FIG. 5

Question: With `CC(=O)NC12CC(NC(C)=O)(C1)C2` [compound 10, N,N′-(bicyclo[1.1.1]pentane-1,3-diyl)diacetamide] as the compound, how does the “formation of reactive metabolite NAPQI” value [1] read?
Answer: The value was “NAPQI was not formed”.

Question: What about the “glutathione conjugate peak (129 neutral loss scan, LC-MS/MS)” value [1] of the same compound?
Answer: The value was “no glutathione conjugate peak was observed”.

Question: And the “compound dose as percent of acetaminophen dose giving a lower pain response” value (male ICR mice; 60 mg/kg vs 200 mg/kg acetaminophen, tonic phase)?
Answer: The value was “about 33%”.

Question: What about the “duration of decrease in pain response (phases)” value (male ICR mice; 200 mg/kg, administered 30 minutes before formalin injection, FIG. 4) of the same compound?
Answer: The value was “lasted through both the early/acute phase (0-5 minutes) and the late/tonic phase (20-35 minutes)”.

Question: And the “pain response compared to acetaminophen and morphine” value (male ICR mice; 200 mg/kg, administered 30 minutes before formalin injection, morphine 5 mg/kg, acetaminophen 200 mg/kg, FIG. 4)?
Answer: The value was “significantly decreased the pain response compared to both acetaminophen and morphine”.

Question: And the “efficacy compared to acetaminophen, acute phase” value (male ICR mice; all dosages ranging from 15 mg/kg to 200 mg/kg, FIG. 8)?
Answer: The value was “equal to or significant increased efficacy compared to acetaminophen”.

Question: What about the “pain response compared to acetaminophen” value (male ICR mice; dosage 200 mg/kg, FIG. 8) of the same compound?
Answer: The value was “approximately 50%”.

Question: And the “dose needed to reduce the pain response to a level less than 200 mg/kg of acetaminophen” value (male ICR mice; tonic phase, FIG. 8)?
Answer: The value was 60 mg/kg.

Question: What does the source list for `CC(=O)NC12CC(C1)C2` [compound 4, N-(bicyclo[1.1.1]pentan-1-yl)acetamide]?
Answer: formation of reactive metabolite NAPQI [1]: NAPQI was not formed; glutathione conjugate peak (129 neutral loss scan, LC-MS/MS) [1]: no glutathione conjugate peak was observed; amount less than the amount of acetaminophen needed to achieve the approximate same pain response (male ICR mice; 60 mg/kg vs 200 mg/kg acetaminophen): about 33%; efficacy compared to acetaminophen, after 25 minutes (male ICR mice; [2]): increased efficacy compared to acetaminophen; pain response compared to acetaminophen, initial 25 minutes (male ICR mice; [2]): reduces the pain response in a manner similar to acetaminophen for the initial 25 minutes; dosage providing a pain response approximately equal to 200 mg/kg of acetaminophen (male ICR mice; dosages ranging from 3 mg/kg to 100 mg/kg, FIG. 9): 60 mg/kg; pain response compared to acetaminophen, entire testing period (male ICR mice; given 60 minutes prior to formalin injection, FIG. 10): reduces the pain response in a manner similar to acetaminophen throughout the entire testing period
